Source: publication PMC7044277 (Nature Communications, 2020)
Several values for one entry are separate records, joined by “and”; a condition that tells them apart may be missing. Equal entries are not always repeated.

Columns and labels:
DRD2 (D2 long receptor) = DRD2 (D2 long receptor) (Homo sapiens, UniProt P14416); test: β-arrestin2 recruitment (Tango), HTLA cells; format: cell-based
DRD2 F1103.28L = biological target: T1, DRD2 F1103.28L (Homo sapiens, UniProt P14416, F110L); test: β-arrestin2 recruitment (Tango), mutant; format: cell-based
T1 construct: expressed in transfected cells; host or cells: HEK293T (ATCC CRL-11268)

5HT1E = 5HT1E (Homo sapiens, UniProt P28566); test: β-arrestin2 recruitment (Tango); format: cell-based; conditions: Fig_S10i; further: reference of the scale not given here
[1] = biological target: DRD2 (D2 long receptor) wild-type (Homo sapiens, UniProt P14416); test: Radioligand competition binding, [3H]-N-methylspiperone, HEK293T membranes; conditions: DRD2; [3H]-methylspiperone (0.8-1.0 nM); read-out: Ki
DRD2 F1103.28A [2] = biological target: T2, DRD2 F1103.28A (Homo sapiens, UniProt P14416, F110A); format: binding; set-up: expressed in transfected cells; host or cells: HEK293T (ATCC CRL-11268); conditions: DRD2 F1103.28A; read-out: Ki
5HT4 = biological target: T3, 5HT4 (Homo sapiens, UniProt Q13639); test: β-arrestin2 recruitment (Tango); format: cell-based; conditions: Fig_S10n; for β-arrestin2 recruitment response in presence of serotonin (replicate values): +10μM serotonin; for β-arrestin2 recruitment response (dose-response source data, replicate values): drug alone
T3 construct: expressed in transfected cells; host or cells: HTLA cells expressing TEV-fused β-arrestin2

DRD2 F1103.28A [3] = biological target: T2, DRD2 F1103.28A; test: β-arrestin2 recruitment (Tango), mutant; format: cell-based; set-up: expressed in transfected cells; host or cells: HEK293T (ATCC CRL-11268)

Chain of 5HT1E (P28566 whole entry): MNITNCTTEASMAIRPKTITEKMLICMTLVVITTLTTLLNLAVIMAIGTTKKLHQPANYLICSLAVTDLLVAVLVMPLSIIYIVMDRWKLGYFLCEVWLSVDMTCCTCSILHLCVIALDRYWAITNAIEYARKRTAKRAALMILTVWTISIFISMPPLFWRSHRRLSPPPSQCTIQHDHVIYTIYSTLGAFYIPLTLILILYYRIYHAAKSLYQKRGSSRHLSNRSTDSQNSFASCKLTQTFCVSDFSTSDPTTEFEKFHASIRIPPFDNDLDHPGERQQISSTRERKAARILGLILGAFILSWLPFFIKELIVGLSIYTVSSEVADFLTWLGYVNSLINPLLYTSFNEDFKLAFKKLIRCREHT
Chain of DRD2 (D2 long receptor) (P14416 whole entry): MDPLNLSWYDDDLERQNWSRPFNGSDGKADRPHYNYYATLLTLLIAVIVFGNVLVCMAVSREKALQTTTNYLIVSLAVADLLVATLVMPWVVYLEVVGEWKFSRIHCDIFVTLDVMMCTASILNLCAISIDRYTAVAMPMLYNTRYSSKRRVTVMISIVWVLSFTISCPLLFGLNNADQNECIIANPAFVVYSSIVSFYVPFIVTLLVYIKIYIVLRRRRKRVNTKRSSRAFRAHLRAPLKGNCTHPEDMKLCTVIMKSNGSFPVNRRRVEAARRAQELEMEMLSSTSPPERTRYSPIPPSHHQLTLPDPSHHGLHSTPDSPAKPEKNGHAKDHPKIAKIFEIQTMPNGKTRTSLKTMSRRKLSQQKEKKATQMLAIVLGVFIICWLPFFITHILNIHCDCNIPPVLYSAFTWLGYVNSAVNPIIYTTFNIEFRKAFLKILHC
T3 sequence (Q13639 whole entry, the tested form may be a part): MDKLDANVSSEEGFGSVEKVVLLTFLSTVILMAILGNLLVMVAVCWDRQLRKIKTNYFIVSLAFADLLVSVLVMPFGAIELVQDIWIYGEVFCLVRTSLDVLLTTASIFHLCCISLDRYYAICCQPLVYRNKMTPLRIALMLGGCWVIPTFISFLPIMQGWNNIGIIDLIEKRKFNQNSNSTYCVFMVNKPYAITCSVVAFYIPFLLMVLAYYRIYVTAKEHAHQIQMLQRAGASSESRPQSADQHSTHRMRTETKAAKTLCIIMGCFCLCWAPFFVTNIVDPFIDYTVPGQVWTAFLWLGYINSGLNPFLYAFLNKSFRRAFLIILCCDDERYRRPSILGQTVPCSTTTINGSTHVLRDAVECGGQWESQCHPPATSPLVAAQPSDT
T2 sequence (P14416 whole entry F110A): as the sequence (P14416 whole entry) above, with F110A counted along it
Chain of DRD2 (D2 long receptor) wild-type (P14416 whole entry): as the sequence (P14416 whole entry) above
T1 sequence (P14416 whole entry F110L): as the sequence (P14416 whole entry) above, with F110L counted along it

In the case of CCOc1cccc2cc([C@H](C)NCC3(O)CCCCC3)oc12 [O4SE6], the “β-arrestin2 recruitment response at DRD2 (source data, replicate values)” value (from here on “β-arrestin2 recruitment response at DRD2”) (DRD2 (D2 long receptor); Log[Drug] -7.52) is reported as 50.7715 and 50.9759 and 58.0792 and 57.6214 and 43.2407 and 45.9376 and 55.9749 and 62.7315 and 56.5853, the “β-arrestin2 recruitment response at DRD2” value (DRD2 (D2 long receptor); Log[Drug] -8) is reported as 39.7841 and 36.3747 and 29.4664 and 31.1292 and 29.8397 and 30.2988 and 27.2382 and 26.622 and 26.0732 and the “β-arrestin2 recruitment response at DRD2” value (DRD2 (D2 long receptor); Log[Drug] -8.52) is reported as 13.2168 and 14.3867 and 13.161 and 13.9303 and 10.9069 and 10.856 and 10.5462 and 11.4912 and 11.2421. For the same compound, the “β-arrestin2 recruitment response at DRD2” value (DRD2 (D2 long receptor); Log[Drug] -9) was 7.123 and 6.617 and 6.837 and 5.043 and 6.064 and 6.895 and 5.588 and 6.122 and 5.826, the “β-arrestin2 recruitment response at DRD2” value (DRD2 (D2 long receptor); Log[Drug] -9.52) was 5.908 and 5.15 and 5.772 and 5.0023 and 4.872 and 4.927 and 5.017 and 5.057 and 5.0924 and the “β-arrestin2 recruitment response at DRD2” value (DRD2 (D2 long receptor); Log[Drug] -10) was 5.347 and 5.121 and 5.289 and 4.982 and 4.774 and 4.763 and 4.918 and 4.901 and 4.8503. The “β-arrestin2 recruitment response at DRD2” value (DRD2 (D2 long receptor); Log[Drug] -10.52) was 5.092 and 5.033 and 5.133 and 4.671 and 4.683 and 4.718 and 4.817 and 4.868 and 4.747, the “β-arrestin2 recruitment response at DRD2” value (DRD2 (D2 long receptor); Log[Drug] -11) was 5.0524 and 5.024 and 4.843 and 4.786 and 4.868 and 4.603 and 4.715 and 4.851 and 5.108 and the “β-arrestin2 recruitment response at DRD2” value (DRD2 (D2 long receptor); Log[Drug] -11.52) was 4.975 and 5.004 and 4.993 and 4.845 and 4.81 and 4.615 and 4.945 and 4.7318 and 4.6555. For the same compound, the EC50 (DRD2 F1103.28L) was > 10 µM, the “β-arrestin2 recruitment response, agonist mode (single replicate values)” value (5HT1E; Log[Drug] -5.52) was 0.8358 and the “β-arrestin2 recruitment response, agonist mode (single replicate values)” value (5HT1E; Log[Drug] -6) was -1.216 and -11.5535 and -10.8591 and -6.779 and -25.5686 and -12.8268 and -17.4797 and -14.3235 and -24.758. The “β-arrestin2 recruitment response, agonist mode (single replicate values)” value (5HT1E; Log[Drug] -6.52) was -5.589 and -4.67 and -2.933 and -14.8207 and -0.8192 and -17.7203 and -10.9861 and -19.449 and -21.9113, the “β-arrestin2 recruitment response, agonist mode (single replicate values)” value (5HT1E; Log[Drug] -7) was -10.5885 and -12.0267 and -4.043 and -9.048 and -20.5356 and 41.9563 and -10.9581 and -15.0865 and -7.033 and the “β-arrestin2 recruitment response, agonist mode (single replicate values)” value (5HT1E; Log[Drug] -7.52) was -6.825 and 5.648 and -4.719 and -12.9295 and 12.6751 and -7.089 and -18.5156 and -18.3717 and -21.8227. The “β-arrestin2 recruitment response, agonist mode (single replicate values)” value (5HT1E; Log[Drug] -8) was -7.977 and -8.538 and -9.216 and -19.7126 and -7.765 and -29.5609 and -0.3541 and 4.202 and -14.1998, the “β-arrestin2 recruitment response, agonist mode (single replicate values)” value (5HT1E; Log[Drug] -8.52) was -8.057 and -8.967 and 2.216 and 9.159 and -4.385 and 8.583 and -6.33 and -6.852 and -26.8276 and the “β-arrestin2 recruitment response, agonist mode (single replicate values)” value (5HT1E; Log[Drug] -9) was 0.8147 and -7.106 and -2.942 and -13.4536 and -20.6306 and -0.4912 and -5.667 and -8.764 and -8.801. For the same compound, the “β-arrestin2 recruitment response, agonist mode (single replicate values)” value (5HT1E; Log[Drug] -9.52) was -5.189 and -0.1954 and -0.3872 and -6.065 and -25.1931 and 34.39 and 6.445 and -12.4444 and -9.8607, the “β-arrestin2 recruitment response, agonist mode (single replicate values)” value (5HT1E; Log[Drug] -10) was 5.7233 and -7.338 and -6.569 and -5.352 and 52.7977 and 2.248 and -7.089 and -2.873 and 1.262 and the “β-arrestin2 recruitment response, agonist mode (single replicate values)” value (5HT1E; Log[Drug] -10.52) was -5.082 and -6.296 and 10.3259 and -3.566 and -12.7533 and -11.9533 and -23.7764 and -18.6704 and -6.074. The “β-arrestin2 recruitment response, agonist mode (single replicate values)” value (5HT1E; Log[Drug] -11) was -1.572 and -7.387 and 4.824 and -17.5471 and -8.254 and 2.626 and -10.6703 and -5.6779 and -4.661, the Ki [1] was 4.57 µM and the Ki (DRD2 F1103.28A [2]) was 0.52 µM. The “β-arrestin2 recruitment response in presence of serotonin (replicate values)” value (5HT4; Log[Drug] -6.52) was 72.8962, the “β-arrestin2 recruitment response (dose-response source data, replicate values)” value (5HT4; Log[Drug] -6.52) was 1.101 and the “β-arrestin2 recruitment response in presence of serotonin (replicate values)” value (5HT4; Log[Drug] -7) was 68.214 and 69.7519 and 58.0435 and 78.1719 and 67.5552 and 58.9312 and 58.5479 and 62.6911 and 62.3338. For the same compound, the “β-arrestin2 recruitment response (dose-response source data, replicate values)” value (5HT4; Log[Drug] -7) was 0.5278 and 0.7799 and 0.9481 and 2.146 and 2.021 and 0.7677 and -0.1447 and -0.08084 and 0.1108, the “β-arrestin2 recruitment response in presence of serotonin (replicate values)” value (5HT4; Log[Drug] -7.52) was 78.4713 and 70.1922 and 60.1136 and 64.4542 and 62.425 and 65.749 and 65.0234 and 67.6362 and 68.0461 and the “β-arrestin2 recruitment response (dose-response source data, replicate values)” value (5HT4; Log[Drug] -7.52) was 1.098 and 0.2279 and 1.538 and 2.02 and 1.183 and 1.483 and -0.2732 and 0.4713 and 0.304. For the same compound, the “β-arrestin2 recruitment response in presence of serotonin (replicate values)” value (5HT4; Log[Drug] -8) was 79.2214 and 70.638 and 63.1387 and 67.7854 and 68.476 and 59.8854 and 62.949 and 70.8028 and 62.3669, the “β-arrestin2 recruitment response (dose-response source data, replicate values)” value (5HT4; Log[Drug] -8) was 1.665 and 0.2788 and 1.143 and 1.476 and 0.7729 and 1.19 and -0.1116 and -0.1148 and 0.2053 and the “β-arrestin2 recruitment response in presence of serotonin (replicate values)” value (5HT4; Log[Drug] -8.52) was 63.0325 and 66.617 and 68.5815 and 61.4979 and 62.8385 and 69.3531 and 69.1189 and 65.2821 and 54.9164. The “β-arrestin2 recruitment response (dose-response source data, replicate values)” value (5HT4; Log[Drug] -8.52) was 2.264 and 0.3266 and 1.143 (2×) and 0.899 and 0.9417 and -0.211 and 0.2724 and 0.6928, the “β-arrestin2 recruitment response in presence of serotonin (replicate values)” value (5HT4; Log[Drug] -9) was 58.3354 and 69.9419 and 59.2835 and 65.9 and 67.9417 and 62.0583 and 73.9242 and 95.122 and 58.9489 and the “β-arrestin2 recruitment response (dose-response source data, replicate values)” value (5HT4; Log[Drug] -9) was 0.7979 and 0.203 and 1.266 and 0.9417 and 1.353 and 2.815 and 0.5659 and 0.7244 and 0.2029. For the same compound, the “β-arrestin2 recruitment response in presence of serotonin (replicate values)” value (5HT4; Log[Drug] -9.52) was 62.0248 and 69.3453 and 57.8541 and 56.9479 and 71.0625 and 61.8156 and 76.4214 and 67.9653 and 74.0649, the “β-arrestin2 recruitment response (dose-response source data, replicate values)” value (5HT4; Log[Drug] -9.52) was 0.3303 and 1.247 and 2.286 and 1.442 and 0.7292 and 1.103 and 0.01536 and 0.2716 and 0.5247 and the “β-arrestin2 recruitment response in presence of serotonin (replicate values)” value (5HT4; Log[Drug] -10) was 55.5618 and 63.9322 and 63.2088 and 69.7104 and 76.0792 and 67.2 and 78.0601 and 69.8546 and 82.4903. The “β-arrestin2 recruitment response (dose-response source data, replicate values)” value (5HT4; Log[Drug] -10) was 0.4781 and 0.7712 and 1.0661 and 1.899 and 1.272 and 1.189 and -0.1148 and 0.1124 and 0.5271, the “β-arrestin2 recruitment response in presence of serotonin (replicate values)” value (5HT4; Log[Drug] -10.52) was 62.9859 and 78.1652 and 74.7819 and 66.7635 and 61.4146 and 52.4937 and 74.1336 and 65.8957 and 89.463 and the “β-arrestin2 recruitment response (dose-response source data, replicate values)” value (5HT4; Log[Drug] -10.52) was 1.621 and 1.692 and 0.9661 and 0.6417 and 1.106 and 1.144 and 0.4066 and -0.08327 and 0.2078. The “β-arrestin2 recruitment response in presence of serotonin (replicate values)” value (5HT4; Log[Drug] -11) was 82.0434 and 83.1157 and 82.0887 and 77.05 and 73.7271 and 49.1812 and 80.7368 and 81.7578 and 70.7931, the “β-arrestin2 recruitment response (dose-response source data, replicate values)” value (5HT4; Log[Drug] -11) was 0.3285 and 0.5731 and 1.621 and 1.898 and 1.603 and 0.8979 and -0.2789 and 0.3428 and 0.1099 and the “β-arrestin2 recruitment response in presence of serotonin (replicate values)” value (5HT4; Log[Drug] -11.52) was 82.4482 and 79.2239 and 74.7068 and 70.1292 and 64.8323 and 73.1583 and 68.2329 and 84.5356 and 79.3843. The “β-arrestin2 recruitment response (dose-response source data, replicate values)” value (5HT4; Log[Drug] -11.52) was 0.3061 and 0.7799 and 0.4241 and 1.31 and 1.564 and 0.9802 and 0.3743 and -0.1811 and 0.5651, the “β-arrestin2 recruitment response in presence of serotonin (replicate values)” value (5HT4; Log[Drug] -12) was 88.7057 and 105.09 and 99.6448 and 69.9375 and 73.7219 and 66.8948 and 92.7613 and 90.5301 and 90.978 and the “β-arrestin2 recruitment response (dose-response source data, replicate values)” value (5HT4; Log[Drug] -12) was 1.557 and 0.8835 and 0.5619 and 0.6979 and 1.198 and 1.239 and 0.08246 and 0.08488 and 0.4382. For the same compound, the EC50 (DRD2 F1103.28A [3]) was > 10 µM.
